Consider three molecules from article PMC9687990, “Identification, Characterization, and Expression of a β-Galactosidase from Arion Species (Mollusca)” (Biomolecules, 2022).

In data set [1] the target is T1, recombinant β-galactosidase from A. vulgaris (β-gal) (Arion vulgaris, UniProt A0A0B7AQJ9).
T1 construct: gene ORF136304
T1 sequence (A0A0B7AQJ9 1-661): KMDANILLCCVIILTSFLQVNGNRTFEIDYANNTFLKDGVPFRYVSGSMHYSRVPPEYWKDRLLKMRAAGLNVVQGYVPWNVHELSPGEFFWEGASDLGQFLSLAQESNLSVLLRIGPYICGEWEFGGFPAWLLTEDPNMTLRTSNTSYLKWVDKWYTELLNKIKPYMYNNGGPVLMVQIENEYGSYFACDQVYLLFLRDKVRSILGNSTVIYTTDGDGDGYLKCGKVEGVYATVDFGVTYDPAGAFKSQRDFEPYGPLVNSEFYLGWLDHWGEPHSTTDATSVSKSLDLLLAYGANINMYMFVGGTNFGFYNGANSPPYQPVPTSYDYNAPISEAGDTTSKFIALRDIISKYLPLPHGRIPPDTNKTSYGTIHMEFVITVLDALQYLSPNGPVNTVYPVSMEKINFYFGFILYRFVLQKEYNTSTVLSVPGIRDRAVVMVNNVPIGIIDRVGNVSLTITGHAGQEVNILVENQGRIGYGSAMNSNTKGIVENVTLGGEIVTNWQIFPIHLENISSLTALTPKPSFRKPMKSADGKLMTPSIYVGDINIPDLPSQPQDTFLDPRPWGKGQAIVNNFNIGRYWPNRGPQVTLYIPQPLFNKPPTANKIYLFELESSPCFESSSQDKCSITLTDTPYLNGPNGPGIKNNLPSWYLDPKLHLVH
Nature of the data set: inhibition of pNP-β-Gal hydrolysis, colorimetric […] nm. The note with it: pNP-β-Gal substrate, pH 4.5, 37 °C, 2 h; 12 mM galactose; product inhibition. In kind it is biochemical.

The test system of data set [2] is T2, native β-galactosidase from A. lusitanicus.
T2 construct: gene β-Gal
Nature of the data set: colorimetric p-nitrophenol release, […] nm. The note with it: pH 4.5 (Na citrate), 37 °C, 2 h; 0.2-12.5 mM substrate. Format: biochemical, Arion vulgaris.

Substrate in the data set “purified protein”: O=[N+]([O-])c1ccc(O[C@@H]2O[C@H](CO)[C@H](O)[C@H](O)[C@H]2O)cc1
Kind of data set: purified protein. The note with it: pH 4.5 (Na citrate), 37 °C, 2 h, 0.2-12.5 mM substrate.

Take `OC[C@H]1OC(O)[C@H](O)[C@@H](O)[C@H]1O` (stereo partly drawn) [galactose]: in data set [1], the “% reduction of activity at 12 mM” value is ~ 40%.

In the case of `O=[N+]([O-])c1ccc(O[C@@H]2O[C@H](CO)[C@H](O)[C@H](O)[C@H]2O)cc1` [pNP-β-Gal], in data set [2], the Km came to 8.3 mM.

B1: recombinant β-galactosidase from A. vulgaris (β-gal) (Arion vulgaris) (protein)
chain: T1 sequence (A0A0B7AQJ9 1-661)
With B1, the Km in “purified protein” was found to be 3.2 mM.
